Measurements published in ChEMBL document CHEMBL1201862, “PubChem BioAssay data set” (2004).
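Step 1: Grow cells in 96-well plates. Step 2: Expose to compound for 48 hours at 5 concentrations. Step 3: Interpolate endpoints linearly; if unreached, use highest concentration. GI50: concentration for 50% inhibition of growth.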 Activity calls are given as the source filed them. Rule as the data show it: active = GI50 up to about 1.1 µM and inactive = higher.

Key:
Test in all cases: inhibition of tumour cell growth, NCI panel, 48 h
[1] = test system: A498
[2] = test system: A549
[3] = test system: ACHN
[4] = test system: CCRF-CEM
[5] = test system: COLO 205
[6] = test system: DLD-1
[7] = test system: HCC 2998
[8] = test system: HCT-116
[9] = test system: HL-60
[10] = test system: HOP-18
[11] = test system: HOP-62
[12] = test system: HOP-92
[13] = test system: HT-29
[14] = test system: IGROV-1
[15] = test system: K562
[16] = test system: KM12
[17] = test system: LXFL 529
[18] = test system: M19-MEL
[19] = test system: MOLT-4
[20] = test system: NCI-H226
[21] = test system: NCI-H23
[22] = test system: NCI-H460
[23] = test system: NCI-H522
[24] = test system: OVCAR-3
[25] = test system: OVCAR-5
[26] = test system: OVCAR-8
[27] = test system: RPMI-8226
[28] = test system: SF-268
[29] = test system: SF-295
[30] = test system: SF-539
[31] = test system: SK-MEL-28
[32] = test system: SK-MEL-5
[33] = test system: SK-OV-3
[34] = test system: SNB-19
[35] = test system: SNB-75
[36] = test system: SW-620
[37] = test system: TK-10
[38] = test system: U-251
[39] = test system: UACC-257
[40] = test system: UACC-62
[41] = test system: UO-31
[42] = test system: 786-0
[43] = test system: BT-549
[44] = test system: CAKI-1
[45] = test system: DU-145
[46] = test system: EKVX
[47] = test system: HCT-15
[48] = test system: Hs-578T
[49] = test system: LOX IMVI
[50] = test system: M14
[51] = test system: MCF7
[52] = test system: MDA-MB-231
[53] = test system: MDA-MB-435
[54] = test system: MDA-N
[55] = test system: Malme-3M
[56] = test system: NCI/ADR-RES
[57] = test system: OVCAR-4
[58] = test system: PC-3
[59] = test system: RXF 393
[60] = test system: SK-MEL-2
[61] = test system: SN12C
[62] = test system: SR
[63] = test system: T47D

For `Cc1ccc(N2C(=O)/C(=C3\SC(C(N)=O)=C(N)N3c3ccccc3)SC2=S)cc1`, the GI50 [1] was 4.73 µM (inactive), the GI50 [2] was > 100 µM (inactive) and the GI50 [3] was 66.1 µM (inactive). For the same compound, the GI50 [4] was > 100 µM (inactive), the GI50 [5] was > 100 µM (inactive) and the GI50 [6] was 90.8 µM (inactive). For the same compound, the GI50 [7] was > 100 µM (inactive), the GI50 [8] was 71 µM (inactive) and the GI50 [9] was > 100 µM (inactive). For the same compound, the GI50 [10] was 37.7 µM (inactive), the GI50 [11] was 25.8 µM (inactive) and the GI50 [12] was 12.1 µM (inactive). The GI50 [13] was 44.3 µM (inactive), the GI50 [14] was > 100 µM (inactive) and the GI50 [15] was 78.7 µM (inactive). For the same compound, the GI50 [16] was > 100 µM (inactive), the GI50 [17] was > 100 µM (inactive) and the GI50 [18] was > 100 µM (inactive). For the same compound, the GI50 [19] was > 100 µM (inactive), the GI50 [20] was 37.3 µM (inactive) and the GI50 [21] was 51.1 µM (inactive). The GI50 [22] was > 100 µM (inactive), the GI50 [23] was 27.7 µM (inactive) and the GI50 [24] was 90.2 µM (inactive). For the same compound, the GI50 [25] was 2.21 µM (inactive), the GI50 [26] was 46 µM (inactive) and the GI50 [27] was 72.4 µM (inactive). For the same compound, the GI50 [28] was 15.7 µM (inactive), the GI50 [29] was 24.9 µM (inactive) and the GI50 [30] was 22.8 µM (inactive). The GI50 [31] was > 100 µM (inactive), the GI50 [32] was > 100 µM (inactive) and the GI50 [33] was 28.2 µM (inactive). The GI50 [34] was 57.5 µM (inactive), the GI50 [35] was 7.91 µM (inactive) and the GI50 [36] was > 100 µM (inactive). The GI50 [37] was > 100 µM (inactive), the GI50 [38] was 71.6 µM (inactive) and the GI50 [39] was > 100 µM (inactive). For the same compound, the GI50 [40] was > 100 µM (inactive) and the GI50 [41] was > 100 µM (inactive).
For `N/N=C(/C=C1\C(=O)Nc2ccccc21)c1ccccc1`, the GI50 [42] was 25.3 µM (inactive), the GI50 [1] was 28.5 µM (inactive) and the GI50 [2] was 29.6 µM (inactive). The GI50 [3] was 45.1 µM (inactive), the GI50 [43] was 15.4 µM (inactive) and the GI50 [44] was 24.3 µM (inactive). For the same compound, the GI50 [4] was 13.2 µM (inactive), the GI50 [5] was 19.9 µM (inactive) and the GI50 [45] was 37.2 µM (inactive). The GI50 [46] was 32.9 µM (inactive), the GI50 [7] was 20 µM (inactive) and the GI50 [8] was 15.3 µM (inactive). The GI50 [47] was 8.43 µM, the GI50 [9] was 3.8 µM (inactive) and the GI50 [11] was 32.9 µM (inactive). For the same compound, the GI50 [12] was 24.5 µM (inactive), the GI50 [13] was 19.9 µM (inactive) and the GI50 [48] was 15.4 µM (inactive). For the same compound, the GI50 [14] was 30.4 µM (inactive), the GI50 [15] was 5.45 µM (inactive) and the GI50 [16] was 11.1 µM (inactive). The GI50 [49] was 22.2 µM (inactive), the GI50 [50] was 15.5 µM (inactive) and the GI50 [51] was 18.9 µM (inactive). For the same compound, the GI50 [52] was 20.3 µM (inactive), the GI50 [53] was 4.15 µM (inactive) and the GI50 [54] was 3.77 µM (inactive). The GI50 [19] was 19.7 µM (inactive), the GI50 [55] was 23.5 µM (inactive) and the GI50 [20] was 45.8 µM (inactive). The GI50 [21] was 30.1 µM (inactive), the GI50 [22] was 28.6 µM (inactive) and the GI50 [23] was 27.9 µM (inactive). For the same compound, the GI50 [56] was 18.2 µM (inactive), the GI50 [24] was 18.2 µM (inactive) and the GI50 [57] was 58.7 µM (inactive). The GI50 [25] was 50.9 µM (inactive), the GI50 [26] was 24 µM (inactive) and the GI50 [58] was 20.3 µM (inactive). For the same compound, the GI50 [27] was 21 µM (inactive), the GI50 [59] was 20 µM (inactive) and the GI50 [28] was 55.6 µM (inactive). For the same compound, the GI50 [29] was 21.4 µM (inactive), the GI50 [30] was 18.7 µM (inactive) and the GI50 [31] was 26.7 µM (inactive). The GI50 [60] was 61.8 µM (inactive), the GI50 [32] was 10.5 µM (inactive) and the GI50 [33] was 32.1 µM (inactive). The GI50 [61] was 26.3 µM (inactive), the GI50 [34] was 27.6 µM (inactive) and the GI50 [35] was 18.7 µM (inactive). The GI50 [62] was 40.8 µM (inactive), the GI50 [36] was 15.9 µM (inactive) and the GI50 [63] was 66.4 µM (inactive). For the same compound, the GI50 [37] was 42.8 µM (inactive), the GI50 [38] was 24.4 µM (inactive) and the GI50 [39] was 36.1 µM (inactive). The GI50 [40] was 24.6 µM (inactive) and the GI50 [41] was 32.2 µM (inactive).
